# Test results from ChEMBL document CHEMBL1275576, “In vitro activity of tomopenem (CS-023/RO4908463) against anaerobic bacteria” (Antimicrob Agents Chemother, 2009).
# What was measured:
# Format in all cases: functional
# [1] = test system: Bacteroides eggerthii DSM 20697; assay: Antimicrobial activity against Bacteroides eggerthii ATCC 27754 by agar dilution method in presence of 5% laked sheep blood
# [2] = test system: Sutterella wadsworthensis; assay: Antimicrobial activity against Sutterella wadsworthensis ATCC 51579 by agar dilution method in presence of 5% laked sheep blood
# Prevotella buccae = assay: Antimicrobial activity against Prevotella buccae ATCC 33574 by agar dilution method in presence of 5% laked sheep blood; conditions: Segatella buccae
# Prevotella corporis = assay: Antimicrobial activity against Prevotella corporis GAI 91000 by agar dilution method in presence of 5% laked sheep blood
# [3] = test system: Prevotella melaninogenica; assay: Antimicrobial activity against Prevotella melaninogenica JCM 6325 by agar dilution method in presence of 5% laked sheep blood; conditions: ATCC 25845
# Prevotella denticola = assay: Antimicrobial activity against Prevotella denticola GAI 5490 by agar dilution method in presence of 5% laked sheep blood
# Porphyromonas gingivalis [4] = assay: Antimicrobial activity against Porphyromonas gingivalis ATCC 33277 by agar dilution method in presence of 5% laked sheep blood
# Fusobacterium nucleatum [5] = assay: Antimicrobial activity against Fusobacterium nucleatum ATCC 25586 by agar dilution method in presence of 5% laked sheep blood
# [6] = Antimicrobial activity against Veillonella dispar ATCC 17748 by agar dilution method in presence of 5% laked sheep blood
# Bacteroides fragilis [7] = assay: Antimicrobial activity against Bacteroides fragilis by agar dilution method in presence of 5% laked sheep blood
# [8] = test system: Bacteroides thetaiotaomicron; assay: Antimicrobial activity against Bacteroides thetaiotaomicron by agar dilution method in presence of 5% laked sheep blood
# [9] = test system: Parabacteroides distasonis; assay: Antimicrobial activity against Parabacteroides distasonis by agar dilution method in presence of 5% laked sheep blood
# Bacteroides uniformis = assay: Antimicrobial activity against Bacteroides uniformis by agar dilution method in presence of 5% laked sheep blood
# Phocaeicola vulgatus = assay: Antimicrobial activity against Bacteroides vulgatus by agar dilution method in presence of 5% laked sheep blood
# Bacteroides caccae = assay: Antimicrobial activity against Bacteroides caccae by agar dilution method in presence of 5% laked sheep blood
# Odoribacter splanchnicus = assay: Antimicrobial activity against Odoribacter splanchnicus by agar dilution method in presence of 5% laked sheep blood
# Prevotella intermedia = assay: Antimicrobial activity against Prevotella intermedia by agar dilution method in presence of 5% laked sheep blood
# Prevotella sp. = assay: Antimicrobial activity against Prevotella sp. by agar dilution method in presence of 5% laked sheep blood
# [10] = test system: Prevotella melaninogenica; assay: Antimicrobial activity against Prevotella melaninogenica by agar dilution method in presence of 5% laked sheep blood
# [11] = test system: Porphyromonas asaccharolytica; assay: Antimicrobial activity against Porphyromonas asaccharolyticus by agar dilution method in presence of 5% laked sheep blood
# Porphyromonas gingivalis [12] = assay: Antimicrobial activity against Porphyromonas gingivalis by agar dilution method in presence of 5% laked sheep blood
# Porphyromonas uenonis = assay: Antimicrobial activity against Porphyromonas uenonis by agar dilution method in presence of 5% laked sheep blood
# Fusobacterium nucleatum [13] = assay: Antimicrobial activity against Fusobacterium nucleatum by agar dilution method in presence of 5% laked sheep blood
# Fusobacterium mortiferum = assay: Antimicrobial activity against Fusobacterium mortiferum by agar dilution method in presence of 5% laked sheep blood
# Finegoldia magna = assay: Antimicrobial activity against Finegoldia magna by agar dilution method in presence of 5% laked sheep blood
# Parvimonas micra = assay: Antimicrobial activity against Parvimonas micra by agar dilution method in presence of 5% laked sheep blood
# [14] = test system: Peptoniphilus asaccharolyticus; assay: Antimicrobial activity against Peptoniphilus asaccharolyticus by agar dilution method in presence of 5% laked sheep blood
# Eggerthella lenta [15] = assay: Antimicrobial activity against Eggerthella lenta by agar dilution method in presence of 5% laked sheep blood
# Eubacterium limosum = assay: Antimicrobial activity against Eubacterium limosum by agar dilution method in presence of 5% laked sheep blood
# Clostridioides difficile [16] = assay: Antimicrobial activity against Clostridium difficile by agar dilution method in presence of 5% laked sheep blood
# Clostridium perfringens = assay: Antimicrobial activity against Clostridium perfringens by agar dilution method in presence of 5% laked sheep blood
# [17] = test system: Peptostreptococcus anaerobius; assay: Antimicrobial activity against Peptostreptococcus anaerobius ATCC 27337 by agar dilution method in presence of 5% laked sheep blood
# [18] = test system: Staphylococcus saccharolyticus; assay: Antimicrobial activity against Staphylococcus saccharolyticus ATCC 14953 by agar dilution method in presence of 5% laked sheep blood
# [19] = test system: Streptococcus constellatus; assay: Antimicrobial activity against Streptococcus constellatus ATCC 27923 by agar dilution method in presence of 5% laked sheep blood
# Clostridioides difficile [20] = assay: Antimicrobial activity against Clostridium difficile GAI 10029 by agar dilution method in presence of 5% laked sheep blood
# Clostridium septicum = assay: Antimicrobial activity against Clostridium septicum ATCC 12464 by agar dilution method in presence of 5% laked sheep blood
# [21] = test system: Paeniclostridium sordellii; assay: Antimicrobial activity against Clostridium sordellii ATCC 9714 by agar dilution method in presence of 5% laked sheep blood; conditions: Paraclostridium sordellii
# Schaalia odontolytica = assay: Antimicrobial activity against Actinomyces odontolyticus GAI 91002 by agar dilution method in presence of 5% laked sheep blood
# Eggerthella lenta [22] = assay: Antimicrobial activity against Eggerthella lenta ATCC 25559 by agar dilution method in presence of 5% laked sheep blood
# [23] = test system: Lactobacillus acidophilus; assay: Antimicrobial activity against Lactobacillus acidophilus JCM 1132 by agar dilution method in presence of 5% laked sheep blood
# Lactobacillus brevis = assay: Antimicrobial activity against Lactobacillus brevis subsp. brevis JCM 1059 by agar dilution method in presence of 5% laked sheep blood; conditions: Levilactobacillus brevis
# Lacticaseibacillus casei = assay: Antimicrobial activity against Lactobacillus casei subsp. casei JCM 1134 by agar dilution method in presence of 5% laked sheep blood
# [24] = test system: Lactiplantibacillus plantarum; assay: Antimicrobial activity against Lactobacillus plantarum JCM 1149 by agar dilution method in presence of 5% laked sheep blood
# Bacteroides fragilis [25] = assay: Antimicrobial activity against Bacteroides fragilis GAI 7955 by agar dilution method in presence of 5% laked sheep blood
compound,measurement,setting,value
Cc1ncc([N+](=O)[O-])n1CCO [METRONIDAZOLE],MIC,[1],0.5 µg/mL
same,MIC,[2],1 µg/mL
same,MIC,Prevotella buccae,0.5 µg/mL
same,MIC,Prevotella corporis,0.125 µg/mL
same,MIC,[3],1 µg/mL
same,MIC,Prevotella denticola,0.25 µg/mL
same,MIC,Porphyromonas gingivalis [4],0.03 µg/mL
same,MIC,Fusobacterium nucleatum [5],≤ 0.015 µg/mL
same,MIC,[6],2 µg/mL
same,MIC50,Bacteroides fragilis [7],0.5 µg/mL
same,MIC90,Bacteroides fragilis [7],1 µg/mL
same,MIC50,[8],0.5 µg/mL
same,MIC90,[8],2 µg/mL
same,MIC50,[9],0.5 µg/mL
same,MIC90,[9],1 µg/mL
same,MIC50,Bacteroides uniformis,0.5 µg/mL
same,MIC90,Bacteroides uniformis,1 µg/mL
same,MIC50,Phocaeicola vulgatus,0.5 µg/mL
same,MIC90,Phocaeicola vulgatus,1 µg/mL
same,MIC50,Bacteroides caccae,0.5 µg/mL
same,MIC90,Bacteroides caccae,1 µg/mL
same,MIC50,Odoribacter splanchnicus,0.5 µg/mL
same,MIC90,Odoribacter splanchnicus,1 µg/mL
same,MIC50,Prevotella intermedia,0.5 µg/mL
same,MIC90,Prevotella intermedia,0.5 µg/mL
same,MIC50,Prevotella sp.,1 µg/mL
same,MIC90,Prevotella sp.,2 µg/mL
same,MIC50,[10],1 µg/mL
same,MIC90,[10],2 µg/mL
same,MIC50,[11],0.06 µg/mL
same,MIC90,[11],0.25 µg/mL
same,MIC50,Porphyromonas gingivalis [12],0.06 µg/mL
same,MIC90,Porphyromonas gingivalis [12],0.25 µg/mL
same,MIC50,Porphyromonas uenonis,0.06 µg/mL
same,MIC90,Porphyromonas uenonis,0.25 µg/mL
same,MIC50,Fusobacterium nucleatum [13],≤ 0.015 µg/mL
same,MIC90,Fusobacterium nucleatum [13],0.5 µg/mL
same,MIC50,Fusobacterium mortiferum,≤ 0.015 µg/mL
same,MIC90,Fusobacterium mortiferum,0.5 µg/mL
same,MIC50,Finegoldia magna,0.5 µg/mL
same,MIC90,Finegoldia magna,1 µg/mL
same,MIC50,Parvimonas micra,0.5 µg/mL
same,MIC90,Parvimonas micra,1 µg/mL
same,MIC50,[14],1 µg/mL
same,MIC90,[14],2 µg/mL
same,MIC50,Eggerthella lenta [15],0.5 µg/mL
same,MIC90,Eggerthella lenta [15],0.5 µg/mL
same,MIC50,Eubacterium limosum,0.5 µg/mL
same,MIC90,Eubacterium limosum,0.5 µg/mL
same,MIC50,Clostridioides difficile [16],1 µg/mL
same,MIC90,Clostridioides difficile [16],1 µg/mL
same,MIC50,Clostridium perfringens,1 µg/mL
same,MIC90,Clostridium perfringens,2 µg/mL
same,MIC,[17],0.125 µg/mL
same,MIC,[18],> 128 µg/mL
same,MIC,[19],> 128 µg/mL
same,MIC,Clostridioides difficile [20],0.5 µg/mL
same,MIC,Clostridium septicum,1 µg/mL
same,MIC,[21],1 µg/mL
same,MIC,Schaalia odontolytica,16 µg/mL
same,MIC,Eggerthella lenta [22],0.5 µg/mL
same,MIC,[23],> 128 µg/mL
same,MIC,Lactobacillus brevis,> 128 µg/mL
same,MIC,Lacticaseibacillus casei,> 128 µg/mL
same,MIC,[24],> 128 µg/mL
same,MIC,Bacteroides fragilis [25],0.25 µg/mL
C[C@@H](O)[C@H]1C(=O)N2C(C(=O)O)=C(S[C@@H]3CN[C@H](CNS(N)(=O)=O)C3)[C@H](C)[C@H]12 [DORIPENEM],MIC,[1],0.25 µg/mL
same,MIC,[2],0.25 µg/mL
same,MIC,Prevotella buccae,0.25 µg/mL
same,MIC,Prevotella corporis,0.125 µg/mL
same,MIC,[3],0.125 µg/mL
same,MIC,Prevotella denticola,0.06 µg/mL
same,MIC,Porphyromonas gingivalis [4],≤ 0.015 µg/mL
same,MIC,Fusobacterium nucleatum [5],4 µg/mL
same,MIC,[6],0.06 µg/mL
same,MIC50,Bacteroides fragilis [7],0.25 µg/mL
same,MIC90,Bacteroides fragilis [7],0.5 µg/mL
same,MIC50,[8],0.5 µg/mL
same,MIC90,[8],1 µg/mL
same,MIC50,[9],0.5 µg/mL
same,MIC90,[9],4 µg/mL
same,MIC50,Bacteroides uniformis,0.5 µg/mL
same,MIC90,Bacteroides uniformis,4 µg/mL
same,MIC50,Phocaeicola vulgatus,0.5 µg/mL
same,MIC90,Phocaeicola vulgatus,4 µg/mL
same,MIC50,Bacteroides caccae,0.5 µg/mL
same,MIC90,Bacteroides caccae,4 µg/mL
same,MIC50,Odoribacter splanchnicus,0.5 µg/mL
same,MIC90,Odoribacter splanchnicus,4 µg/mL
same,MIC50,Prevotella intermedia,0.06 µg/mL
same,MIC90,Prevotella intermedia,0.125 µg/mL
same,MIC50,Prevotella sp.,0.06 µg/mL
same,MIC90,Prevotella sp.,0.125 µg/mL
same,MIC50,[10],0.06 µg/mL
same,MIC90,[10],0.125 µg/mL
same,MIC50,[11],0.03 µg/mL
same,MIC90,[11],0.06 µg/mL
same,MIC50,Porphyromonas gingivalis [12],0.03 µg/mL
same,MIC90,Porphyromonas gingivalis [12],0.06 µg/mL
same,MIC50,Porphyromonas uenonis,0.03 µg/mL
same,MIC90,Porphyromonas uenonis,0.06 µg/mL
same,MIC50,Fusobacterium nucleatum [13],0.03 µg/mL
same,MIC90,Fusobacterium nucleatum [13],0.25 µg/mL
same,MIC50,Fusobacterium mortiferum,0.03 µg/mL
same,MIC90,Fusobacterium mortiferum,0.25 µg/mL
same,MIC50,Finegoldia magna,0.125 µg/mL
same,MIC90,Finegoldia magna,0.25 µg/mL
same,MIC50,Parvimonas micra,0.06 µg/mL
same,MIC90,Parvimonas micra,0.125 µg/mL
same,MIC50,[14],≤ 0.015 µg/mL
same,MIC90,[14],0.125 µg/mL
same,MIC50,Eggerthella lenta [15],0.25 µg/mL
same,MIC90,Eggerthella lenta [15],0.25 µg/mL
same,MIC50,Eubacterium limosum,0.25 µg/mL
same,MIC90,Eubacterium limosum,0.25 µg/mL
same,MIC50,Clostridioides difficile [16],2 µg/mL
same,MIC90,Clostridioides difficile [16],4 µg/mL
same,MIC50,Clostridium perfringens,0.03 µg/mL
same,MIC90,Clostridium perfringens,0.06 µg/mL
same,MIC,[17],0.5 µg/mL
same,MIC,[18],0.06 µg/mL
same,MIC,[19],0.5 µg/mL
same,MIC,Clostridioides difficile [20],4 µg/mL
same,MIC,Clostridium septicum,0.06 µg/mL
same,MIC,[21],≤ 0.015 µg/mL
same,MIC,Schaalia odontolytica,0.25 µg/mL
same,MIC,Eggerthella lenta [22],0.25 µg/mL
same,MIC,[23],0.125 µg/mL
same,MIC,Lactobacillus brevis,0.125 µg/mL
same,MIC,Lacticaseibacillus casei,1 µg/mL
same,MIC,[24],0.125 µg/mL
same,MIC,Bacteroides fragilis [25],2 µg/mL
